Reference: patent EP0317956A2, “Anti-tumor prodrugs” (Bristol-Myers Squibb Company, priority 1987, dated 1989)

What was measured:
[1] = tested on: P388 leukemia; experiment: In vivo tumor test, i.p. implanted P388 leukemia; set-up: species or system mice; conditions: for Optimum Dose: P388, 10⁶ ascites cells i.p., single i.p. injection of drug, day 1; for Maximum Effect T/C: P388, T/C = median survival time (treated/control) X 100, single i.p. injection day 1, 30 days
Protocol: (§1) The in vivo tumor tests were performed utilizing methods described in detail in a previous publication (8). The lymphatic leukemias P-388 and L-1210 were used for initial testing of mitomycin and daunomycin derivatives respectively. Selected compounds were tested against subcutaneouly implanted B16 melanoma with treatment administered intravenously. Experimental parameters are shown in the footnotes of the accompanying tables.
(§2) Three murine tumor models were used to evaluate the in-vivo activities of the drugs.

[2] = tested on: B16 melanoma; experiment: In vivo tumor test, subcutaneously implanted B16 melanoma; set-up: species or system mice; conditions: for Optimum Dose / Maximum Effect T/C: B16 melanoma s.c., three i.v. injections, days 1, 5 and 9; for Maximum Effect T/C: 60 days; for antitumor activity: subcutaneously implanted B16 melanoma, i.v. days 1, 5 and 9
Protocol: as §1
Some of the MMC and MMA derivatives were tested for activity against subcutaneously implanted B16 melanoma. In these experiments, the drugs were administered i.v. on days 1,5 and 9 after implantation of the tumor. The cleavable MMC prodrugs, 20 and 21, were about as active as MMC. […] The cleavable prodrugs, 24 - 27, were as active as MMA, with 24 showing slightly greater activity.

[3] = tested on: L1210 leukemia; experiment: In vivo tumor test, i.p. implanted L1210 leukemia; set-up: species or system mice; conditions: for Optimum Dose: L1210, 10⁶ ascites cells i.p., single i.p. injection of drug, day 1; for Maximum Effect T/C: L1210, T/C = median survival time (treated/control) X 100, single i.p. injection day 1, 30 days; for in-vivo activity: L1210, optimal i.p. dose
Protocol: as §1, §2

[4] = Model study: stability and dithiothreitol-induced fragmentation of model benzyl carbamate disulfide; format: physicochemical
Source text: In order to establish that benzyl carbamates with suitably positioned disulfide substituents would undergo fragmentation of the carbamate upon disulfide reduction, model studies were undertaken using p-nitroaniline as a leaving group. The synthesis of the model benzyl carbamate 12 is depicted in Figure 1.
The course of reaction was monitored by uv/vis spectroscopy, in which 14 (λ max 371 nm) was easily distinguished from the starting material 12 (λ max 313nm). […] It was also observed that the release of 14 was slightly faster at 37°C than at room temperature.

| Compound | Optimum Dose [1] [mg/kg] | Maximum Effect T/C [1] | Optimum Dose [2] [mg/kg/inj] | Maximum Effect T/C [2] | also measured |
| --- | --- | --- | --- | --- | --- |
| CO[C@@]12[C@H](COC(N)=O)C3=C(C(=O)C(C)=C(N)C3=O)N1C[C@H]1[C@@H]2N1C(=O)OCc1ccccc1SSc1ccccn1 [Compound 18, MMC Benzyl Carbamate Disulfide] | 51.2 | 195 | – | – | – |
| CO[C@@]12[C@H](COC(N)=O)C3=C(C(=O)C(C)=C(N)C3=O)N1C[C@H]1[C@@H]2N1C(=O)OCc1ccc(SSc2ccccn2)cc1 [Compound 20, MMC Benzyl Carbamate Disulfide] | 25.6 | 353 | 12.8 | 145 | – |
| COC1=C(C)C(=O)C2=C(C1=O)[C@@H](COC(N)=O)[C@@]1(OC)[C@H]3N[C@H]3CN21 [Compound 22, mitomycin A, reference compound] | 3.2 | 180 | 0.4 | 182 | – |
| COc1cccc2c1C(=O)c1c(O)c3c(c(O)c1C2=O)C[C@@](O)(C(C)=O)C[C@@H]3O[C@H]1C[C@H](N)[C@H](O)[C@H](C)O1 [Compound 28, daunomycin, reference compound] | – | – | – | – | Optimum Dose [3]: 3.2 mg/kg; Maximum Effect T/C [3]: 154 |
| COc1cccc2c1C(=O)c1c(O)c3c(c(O)c1C2=O)C[C@@](O)(C(C)=O)C[C@@H]3O[C@H]1C[C@H](NC(=O)OCc2ccccc2)[C@H](O)[C@H](C)O1 [Compound 29, DAU Benzyl Carbamate] | – | – | – | – | Optimum Dose [3]: 9.0 mg/kg; in-vivo activity [3]: inactive; Maximum Effect T/C [3]: 100 |
| Benzyl Carbamate Disulfide [Compound 12] | – | – | – | – | stability in buffered aqueous methanol ([4]; aqueous methanol buffered between pH 6 to 8, no reducing agent): stable for several days; release of p-nitroaniline upon treatment with dithiothreitol ([4]; dithiothreitol, uv/vis and HPLC): p-nitroaniline was released |
| DAU Benzyl Carbamate Disulfide [Compound 30] | – | – | – | – | Optimum Dose [3]: 3.0 mg/kg; in-vivo activity [3]: inactive; Maximum Effect T/C [3]: 100 |
| MMA Benzyl Carbamate Disulfide [Compound 23] | – | – | 6.4 | 124 | antitumor activity [2]: little activity |
| MMA Benzyl Carbamate Disulfide [Compound 25] | 3.2 | 153 | 3.2 | 191 | – |
| MMA Benzyl Carbamate Disulfide [Compound 26] | 3.2 | 163 | 3.2 | 182 | – |
| MMA Benzyl Carbamate Disulfide [Compound 27] | 12.8 | 163 | 9.6 | 182 | – |
| MMC Benzyl Carbamate Disulfide [Compound 19] | 51.2 | 185 | – | – | – |
| MMC Benzyl Carbamate Disulfide [Compound 21] | 12.8 | 222 | 6.4 | 123 | – |
| MMC Benzyl Carbamate [Compound 17] | 12.8 | 144 | 4.8 | 96 | antitumor activity [2]: little activity |
| mitomycin C [Compound 16, reference compound] | 3.2 | 266 | 3.0 | 143 | – |
